Laboratory results reported in US11034692B1 (Genentech, Inc., priority 2017, dated 2021).

These compounds were tested against HPK1 (assay: HPK1 Lantha Binding Assay ("Lanth")). Conditions: Table B1-1, read-out: HPK1 Ki (μM) (Lanth).
Method: HPK1 Lantha Binding Assay (“Lanth”)
The compounds to be tested were diluted by preparing 12.5 uL/well of 5 mM compound (100×) in columns 2 and 13 and 10 ul/well of DMSO in columns 3-12, 14-23, and wells A1-H1 and I24-P24 of the compound plate using a Bravo liquid handling platform. For the reference compound, the top concentration was 1 mM. To the plate was added 10 ul 2 mM staurosporine in wells J1-P1 and A24-H24. A 11 point 5-fold compound serial dilution was performed using the Bravo liquid handling platform. From the plate were transferred 2.5 ul of the solutions from column 2 and column 13 to the 10 ul of DMSO in columns 3 and 14 & so on. The compound plate was centrifuged at 2500 rpm for 1 min. From the compound plate was transferred 80 nl of the compounds into an assay plate using the Echo liquid handler system. One compound plate makes two assay plates. Each assay plate is sealed and stored in an N2 cabinet.
The following assay concentrations and times were used: 2 nM HPK1, 2 nM Eu-Anti-GST Ab, and 15 nM Tracer222, with 60 min incubation time.
III. HPK Lantha Binding Assay:
For the binding assay, 4 ul 2×HPK1 and Eu-anti-GST antibody were added to each well of the assay plate using a Multidrop reagent dispenser. The solutions were incubated in a 23 C incubator for 1 h. To each well of the assay plate was added 4 ul 2× Tracer-222 using a Multidrop reagent dispenser. The solutions were again incubated in a 23 C incubator for 1 h. The results of the assay were read using an Envision plate reader with the following parameters: TR_FRET, 340ex/615 and 665em; 100 usec Delay; and 200 usec integration.
Compound Ki was analyzed using Morrison ki fit model in XL-fit • a. fit=(1−((((E+x)+(Ki*(1+(S/Kd))))−(((((E+x)+(Ki*(1+(S/Kd))))[…])−((4*E)*x))^0.5))/(2*E))) • res=(y-fit) • b. Parameters: • E=enzyme concentration • S=Tracer222 concentration, Kd=Tracer222 Kd • All measurements reported using the same units (uM)
Exemplary compounds of Formula I or Ia were tested in the binding assays. The Ki data in Table B1-1 are based on the “Lanth” assay.

| SMILES | Ki [nM] |
| --- | --- |
| CCc1ccncc1-c1cc2cc(NC(=O)c3cnn(C4CCNCC4)c3)ncc2c(N)n1 [Compound 84, 1-Piperidin-4-yl-1H-pyrazole-4-carboxylic acid [8-amino-6-(4-ethylpyridin-3-yl)-[2,7]naphthyridin-3-yl]amide] | 1.8 |
| CCc1ccncc1-c1cc2cc(Nc3cnn(CCO)c3)ncc2c(N)n1 [Compound 85, 2-{4-[8-Amino-6-(4-ethylpyridin-3-yl)-[2,7]naphthyridin-3-ylamino]pyrazol-1-yl}ethanol] | 1.98 |
| CCc1ccncc1-c1cc2cc(NC(=O)Cc3ccn[nH]3)ncc2c(N)n1 [Compound 102, N-(8-amino-6-(4-ethylpyridin-3-yl)-2,7-naphthyridin-3-yl)-2-(1H-pyrazol-5-yl)acetamide] | 21.5 |
| CCc1ccncc1-c1cc2cc(NCc3ccn[nH]3)ncc2c(N)n1 [Compound 105, N6-((1H-pyrazol-5-yl)methyl)-3-(4-ethylpyridin-3-yl)-2,7-naphthyridine-1,6-diamine] | 40.2 |
| CCc1ccncc1-c1cc2cc(NC(=O)N[C@H]3C[C@@H](O)C3)ncc2c(N)n1 [Compound 109, 1-[8-amino-6-(4-ethyl-3-pyridyl)-2,7-naphthyridin-3-yl]-3-(cis-3-hydroxycyclobutyl)urea] | 1.3 |
| Cc1ccncc1-c1cc2cc(NC(=O)C3C4CNCC43)ncc2c(N)n1 (centres unmarked) [Compound 111, N-[8-amino-6-(4-methyl-3-pyridyl)-2,7-naphthyridin-3-yl]-3-azabicyclo[3.1.0]hexane-6-carboxamide] | 2.38 |
| Cc1ccncc1-c1cc2cc(NC(=O)C3CC34CNC4)ncc2c(N)n1 (centres unmarked) [Compound 113, N-[8-amino-6-(4-methyl-3-pyridyl)-2,7-naphthyridin-3-yl]-5-azaspiro[2.3]hexane-2-carboxamide] | 3.53 |
| COCCN1C[C@@H]2[C@H](C1)[C@H]2C(=O)Nc1cc2cc(-c3cnccc3C)nc(N)c2cn1 [Compound 124, exo-N-[8-amino-6-(4-methyl-3-pyridyl)-2,7-naphthyridin-3-yl]-3-(2-methoxyethyl)-3-azabicyclo[3.1.0]hexane-6-carboxamide] | 1.1 |
| Cc1ccncc1-c1cc2cc(NC(=O)O[C@@H]3CCNC3=O)ncc2c(N)n1 [Compound 133] | 15 |
| Cc1ccncc1-c1cc2cc(NC(=O)N[C@H]3CCC[C@@H]3O)ncc2c(N)n1 [Compound 134, 1-[8-amino-6-(4-methyl-3-pyridyl)-2,7-naphthyridin-3-yl]-3-[(1S,2S)-2-hydroxycyclopentyl]urea] | 5.6 |
| CC(=O)N1C[C@@H]2[C@H](C1)[C@H]2C(=O)Nc1cc2cc(-c3cnccc3C)nc(N)c2cn1 [Compound 143, exo-3-acetyl-N-[8-amino-6-(4-methyl-3-pyridyl)-2,7-naphthyridin-3-yl]-3-azabicyclo[3.1.0]hexane-6-carboxamide] | 5.9 |
| Cc1ccncc1-c1cc2cc(NC(=O)[C@H]3[C@@H]4CN(S(C)(=O)=O)C[C@@H]43)ncc2c(N)n1 [Compound 151, exo-N-[8-amino-6-(4-methyl-3-pyridyl)-2,7-naphthyridin-3-yl]-3-methylsulfonyl-3-azabicyclo [3.1.0]hexane-6-carboxamide] | 15 |
| CC(=O)Nc1cc2c(F)c(-c3cnccc3C)nc(N)c2cn1 [Compound 156, N-(8-amino-5-fluoro-6-(4-methylpyridin-3-yl)-2,7-naphthyridin-3-yl)acetamide] | 21 |
| Cc1ccncc1-c1cc2cc(NC(=O)[C@H]3[C@@H]4CNC(=O)[C@@H]43)ncc2c(N)n1 [Compound 158, Exo-N-(8-amino-6-(4-methylpyridin-3-yl)-2,7-naphthyridin-3-yl)-2-oxo-3-azabicyclo[3.1.0]hexane-6-carboxamide] | 3.6 |
| CC(=O)N1CC(n2cc(Nc3cc4cc(-c5cnccc5C)nc(N)c4cn3)cn2)C1 [Compound 161, 1-[3-[4-[[8-amino-6-(4-methyl-3-pyridyl)-2,7-naphthyridin-3-yl]amino]pyrazol-1-yl]azetidin-1-yl]ethanone] | 0.02 |
| Cc1ccncc1-c1nc(N)c2cnc(NC(=O)Nc3cnn(C)c3)cc2c1F [Compound 162, 1-[8-amino-5-fluoro-6-(4-methyl-3-pyridyl)-2,7-naphthyridin-3-yl]-3-(1-methylpyrazol-4-yl)urea] | 3.2 |

| SMILES | Ki [nM] |
| --- | --- |
| Cc1ccncc1-c1nc(N)c2cnc(NC(=O)Nc3cnn(C)c3)cc2c1Cl [Compound 163, 1-[8-amino-5-chloro-6-(4-methyl-3-pyridyl)-2,7-naphthyridin-3-yl]-3-(1-methylpyrazol-4-yl)urea] | 1.2 |
| CCc1ccncc1-c1cc2cc(Nc3cnn(CCO)c3)ncc2c(N)n1 [Compound 168, 2-[4-[[8-amino-6-(4-ethyl-3-pyridyl)-2,7-naphthyridin-3-yl]amino]pyrazol-1-yl]ethanol] | 2 |
| Cc1ccncc1-c1cc2cc(Nc3cnn(CCO)c3)ncc2c(N)n1 [Compound 169, 2-[4-[[8-amino-6-(4-methyl-3-pyridyl)-2,7-naphthyridin-3-yl]amino]pyrazol-1-yl]ethanol] | 0.48 |
| Cc1ccncc1-c1cc2cc(Nc3ccn(C)c(=O)c3)ncc2c(N)n1 [Compound 170, 4-[[8-amino-6-(4-methyl-3-pyridyl)-2,7-naphthyridin-3-yl]amino]-1-methyl-pyridin-2-one] | 3 |
| Cc1ccncc1-c1cc2cc(NC(=O)Nc3ccccc3C#N)ncc2c(N)n1 [Compound 171, 1-[8-amino-6-(4-methyl-3-pyridyl)-2,7-naphthyridin-3-yl]-3-(2-cyanophenyl)urea] | 1500 |
| COCCN1CC(NC(=O)Nc2cc3cc(-c4cnccc4C)nc(N)c3cn2)C1 [Compound 174, 1-(8-amino-6-(4-methylpyridin-3-yl)-2,7-naphthyridin-3-yl)-3-(1-(2-methoxyethyl)azetidin-3-yl)urea] | 2.5 |
| Cc1ccncc1-c1cc2cc(NC(=O)NC3CNC3)ncc2c(N)n1 [Compound 175, 1-(8-amino-6-(4-methylpyridin-3-yl)-2,7-naphthyridin-3-yl)-3-(azetidin-3-yl)urea] | 3.4 |
| CCc1ccncc1-c1cc2cc(NC(=O)N[C@@H]3CCN(C)C3=O)ncc2c(N)n1 [Compound 176, (R)-1-(8-amino-6-(4-ethylpyridin-3-yl)-2,7-naphthyridin-3-yl)-3-(1-methyl-2-oxopyrrolidin-3-yl)urea] | 5.5 |
| CNC(=O)C(C)(C)n1cc(Nc2cc3cc(-c4cnccc4C)nc(N)c3cn2)cn1 [Compound 182, 2-[4-[[8-amino-6-(4-methyl-3-pyridyl)-2,7-naphthyridin-3-yl]amino]pyrazol-1-yl]-N,2-dimethyl-propanamide] | 1.2 |
| Cc1ccncc1-c1cc2cc(Nc3cnn(C(C)(C)C(=O)N(C)C)c3)ncc2c(N)n1 [Compound 183, 2-[4-[[8-amino-6-(4-methyl-3-pyridyl)-2,7-naphthyridin-3-yl]amino]pyrazol-1-yl]-N,N,2-trimethyl-propanamide] | 0.98 |
| C[C@H]1COC(=O)N1c1cc2cc(NC(=O)[C@@H]3C[C@H]3C#N)ncc2c(N)n1 [Compound 186, trans-N-(8-amino-6-((S)-4-methyl-2-oxooxazolidin-3-yl)-2,7-naphthyridin-3-yl)-2-cyanocyclopropanecarboxamide] | 4 |
| Cc1ccncc1-c1cc2cc(NC(=O)[C@H]3C[C@@H]3CC#N)ncc2c(N)n1 [Compound 193, (1S,2R)—N-(8-amino-6-(4-methylpyridin-3-yl)-2,7-naphthyridin-3-yl)-2-(cyanomethyl)cyclopropane-1-carboxamide] | 0.135 |
| Cc1ccncc1-c1cc2cc(NC(=O)[C@@H]3C[C@H]3CC#N)ncc2c(N)n1 [Compound 194, (1R,2S)—N-(8-amino-6-(4-methylpyridin-3-yl)-2,7-naphthyridin-3-yl)-2-(cyanomethyl)cyclopropane-1-carboxamide] | 0.967 |
| Cc1ccncc1-c1nc(N)c2cnc(NC(=O)[C@H]3C[C@@H]3c3cn[nH]c3)cc2c1F [Compound 195, (1S,2S)—N-(8-amino-5-fluoro-6-(4-methylpyridin-3-yl)-2,7-naphthyridin-3-yl)-2-(1H-pyrazol-4-yl)cyclopropane-1-carboxamide] | 0.02 |
| Cc1ccncc1-c1nc(N)c2cnc(NC(=O)[C@@H]3C[C@H]3c3cn[nH]c3)cc2c1F [Compound 196, (1R,2R)—N-(8-amino-5-fluoro-6-(4-methylpyridin-3-yl)-2,7-naphthyridin-3-yl)-2-(1H-pyrazol-4-yl)cyclopropane-1-carboxamide] | 6.01 |
| Cc1ccncc1-c1cc2cc(NC(=O)[C@H]3C[C@@H]3c3cnn(C)c3)ncc2c(N)n1 [Compound 197, (1S,2S)—N-(8-amino-6-(4-methylpyridin-3-yl)-2,7-naphthyridin-3-yl)-2-(1-methyl-1H-pyrazol-4-yl)cyclopropane-1-carboxamide] | 0.027 |
